In assay [1] the target is T1, JNK3 (Homo sapiens, UniProt P53779).
T1 construct: One such construct encodes amino acid residues Ser40-Glu402 of JNK3α1 and is preceded by Met and Gly residues; Met-Gly dipeptide (initiation Met plus Gly added for the NcoI site) (N); made in house; host or cells: E. coli BL21 (DE3)
Briefly: JNK inhibition assay (spectrophotometric coupled-enzyme assay). It counts as biochemical. The following applies: activated JNK3 10 nM, 10 μM ATP, 30° C.; read-out: JNK3 Activity (Ki rating). The source says: A BLAST search of the EST database using the published JNK3α1 cDNA as a query identified an EST clone (#632588) that contained the entire coding sequence for human JNK3α1. Polymerase chain reactions (PCR) using pfu polymerase (Strategene) were used to introduce restriction sites into the cDNA for cloning into the pET-15B expression vector at the NcoI and BamHI sites. The protein was expressed in E. coli. Due to the poor solubility of the expressed full-length protein (Met 1-Gln 422), an N-terminally truncated protein starting at Ser residue at position 40 (Ser 40) was produced. This truncation corresponds to Ser 2 of JNK1 and JNK2 proteins, and is preceded by a methionine (initiation) and a glycine residue. The glycine residue was added in order to introduce an NcoI site for cloning into the expression vector. In addition, systematic C-terminal truncations were performed by PCR to identify a construct that give rise to diffraction-quality crystals. One such construct encodes amino acid residues Ser40-Glu402 of JNK3α1 and is preceded by Met and Gly residues.
Five mg of JNK3 was diluted to 0.5 mg/ml in 50 mM HEPES buffer, pH 7.5, containing 100 mM NaCl, 5 mM DTT, 20 mM MgCl2 and 1 mM ATP. GST-MKK7(DD) was added at a molar ratio of 1:2.5 GST-MKK7:JNK3. After incubation for 30 minutes at 25° C., the reaction mixture was concentrated 5-fold by ultrafiltration in a Centriprep-30 (Amicon, Beverly, Mass.), diluted to 10 ml and an additional 1 mM ATP added. This procedure was repeated three times to remove ADP and replenish ATP. The final addition of ATP was 5 mM and the mixture incubated overnight at 4° C.
The activated JNK3/GST-MKK7(DD) reaction mixture was exchanged into 50 mM HEPES buffer, pH 7.5, containing 5 mM DTT and 5% glycerol (w/v) by dialysis or ultrafiltration. The reaction mixture was adjusted to 1.1 M potassium phosphate, pH 7.5, and purified by hydrophobic interaction chromatography (at 25° C.) using a Rainin Hydropore column. […] Activated JNK3 (i.e. doubly phosphorylated JNK3) was stored at −70° C. at 0.25-1 mg/ml.
Compounds were assayed for the inhibition of JNK3 by a spectrophotometric coupled-enzyme assay. In this assay, a fixed concentration of activated JNK3 (10 nM) was incubated with various concentrations of a potential inhibitor dissolved in DMSO for 10 minutes at 30° C. in a buffer containing 0.1 M HEPES buffer, pH 7.5, containing 10 mM MgCl2, 2.5 mM phosphoenolpyruvate, 200 μM NADH, 150 μg/mL pyruvate kinase, 50 μg/mL lactate dehydrogenase, and 200 μM EGF receptor peptide. The EGF receptor peptide has the sequence […] (SEQ ID NO: 3), and is a phosphoryl acceptor in the JNK3-catalyzed kinase reaction. The reaction was initiated by the addition of 10 μM ATP and the assay plate is inserted into the spectrophotometer's assay plate compartment that was maintained at 30° C. The decrease of absorbance at 340 nm was monitored as a function of time. The rate data as a function of inhibitor concentration was fitted to competitive inhibition kinetic model to determine the Ki.
The compound numbers correspond to the compound numbers in Tables 1-3.

The target of assay [2] is human Lck kinase. Description: Lck inhibition assay (radioactivity-based assay A or spectrophotometric assay B). Type of assay: biochemical. As for the experimental part:
The compounds of this invention can be evaluated as inhibitors of human Lck kinase using either a radioactivity-based assay or spectrophotometric assay.
The compounds are assayed as inhibitors of full length bovine thymus Lck kinase (from Upstate Biotechnology, cat. no. 14-106) expressed and purified from baculo viral cells. Lck kinase activity is monitored by following the incorporation of ^33P from ATP into the tyrosine of a random poly Glu-Tyr polymer substrate of composition, Glu:Tyr=4:1 (Sigma, cat. no. P-0275). The following are the final concentrations of the assay components: 0.025 M HEPES, pH 7.6, 10 mM MgCl2, 2 mM DTT, 0.25 mg/ml BSA, 10 μM ATP (1-2 μCi ^33P-ATP per reaction), 5 mg/ml poly Glu-Tyr, and 1-2 units of recombinant human […] kinase. In a typical assay, all the reaction components with the exception of ATP are pre-mixed and aliquoted into assay plate wells. […] The plates are sealed and the amount of radioactivity associated with the filters is quantified on a TopCount scintillation counter. The radioactivity incorporated is plotted as a function of the inhibitor concentration. […]
In a typical assay, all the reaction components with the exception of ATP are pre-mixed and aliquoted into assay plate wells. […] The absorbance change at 340 nm with time, the rate of the reaction, is monitored on a molecular devices plate reader. […]

Some results are limits rather than exact numbers.

T1 sequence (P53779 40-402): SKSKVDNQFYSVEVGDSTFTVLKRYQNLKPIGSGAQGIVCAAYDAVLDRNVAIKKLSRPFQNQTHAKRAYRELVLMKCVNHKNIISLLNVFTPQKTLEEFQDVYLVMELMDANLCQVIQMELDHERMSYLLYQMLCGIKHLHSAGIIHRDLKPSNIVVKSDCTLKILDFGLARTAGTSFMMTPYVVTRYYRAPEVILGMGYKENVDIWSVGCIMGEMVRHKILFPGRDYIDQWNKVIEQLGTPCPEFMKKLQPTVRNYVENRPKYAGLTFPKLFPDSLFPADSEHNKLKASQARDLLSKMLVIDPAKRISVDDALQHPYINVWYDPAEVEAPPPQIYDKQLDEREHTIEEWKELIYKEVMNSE

As for `Cc1nc(-c2cccs2)sc1-c1ccnc(Nc2ccc(S(N)(=O)=O)cc2)n1` [IIc-22], the Ki in assay [1] and in assay [2] was under 0.1 µM each time.
